Laboratory results reported in patent US20260193274A1, “AKT1 MODULATORS” (Alterome Therapeutics, Inc., priority 2022, published 2026).

Biological target: T1, AKT1-E17K (Homo sapiens, UniProt P31749, E17K)
T1 construct: host or cells: HEK-293 (ATCC CRL-1573)
Experiment: NanoBRET Target Engagement (TE) Assay
Assay type: cell-based
Settings: full length AKT E17K NanoLuc fusion in transfected HEK-293 cells; 2 hr equilibration with tracer and compound
Text: NanoBRET is a highly specific and validated cell-based technique for assessing target engagement (Vasta et al., 2018, Cell Chem Biol. 25(2):206-214). The NanoBRET™ Target Engagement (TE) Intracellular Kinase Assays are based on the NanoBRET™ System (Promega Corporation), an energy transfer technique designed to measure molecular proximity in living cells. The NanoBRET™ TE Assays measure the apparent affinity of test compounds by competitive displacement of the NanoBRET™ tracer compound, which is a cell permeable molecule engineered to be reversibly bound to a NanoLuc® luciferase-kinase fusion expressed in cells. For compound screening, when a test compound binds to the selected kinase, the BRET signal is attenuated. For kinase inhibitors in particular, intracellular target selectivity is fundamental to pharmacological mechanism and allows the proteins of interest to be in the correct cellular confirmation. Although non-cell-based techniques have been developed to measure kinase binding or enzymatic inhibition with accuracy and precision, such approaches can fail to accurately predict engagement of the full-length target protein in the more complex and biologically relevant cellular context (Knight and Shokat, 2005, Chem. Biol. 12, 621-637; Smyth and Collins, 2009, J. Chem. Biol. 2, 131-151). […] Briefly, HEK-293 cells (ATCC Cat #CRL-1573) were used for transfection purposes using FuGENE HD Transfection Reagent (Promega Cat #E2311). All cells were evaluated for viability prior to transfection and optimization of the transfection was done prior to experimentation. Greater than 95% viability was used for all experiments. Following transfection, cells were washed and resuspended in Opti-MEM. NanoBRET assays were performed in white, 384-well plates (Corning) at a density of 2×10^5 cells/well. All example compounds were prepared as concentrated stock solutions in DMSO (Sigma-Aldrich). Compounds are dissolved in DMSO to make 10 mM stock solution. Example compounds were transferred as 40 μL of 10 mM stock solution to a 384 pp-plate (LABCYTE, PP-0200) and diluted in 3-fold, 10-point dilution via transferring […] by Apricot liquid handler. A Labcyte ECHO 550 compound dispenser was used to facilitate compound transfer directly to cells. Cells were equilibrated for 2 hr with energy transfer probes and example compound prior to BRET measurements. The AKTE17K (Promega Cat #NV2421) as well as specific probe (NanoBRET tracer, Promega Cat #N264B) was prepared at a concentration of 20× in tracer dilution buffer (12.5 mM HEPES, 31.25% PEG-400, pH 7.5). For target engagement analysis, the energy transfer probes were added to the cells at concentrations optimized for the target in question (AKT E17K). Following compound incubation, NanoBRET NanoGlo Substrate (Promega Cat #N157D) and Extracellular Nanoluc Inhibitor (Promega Cat #N235C) was added according to the manufacturer's recommended protocol, and luminescence was measured on Envision Reader (Perkin Elmer) Multimode Luminometer equipped with 450 nmBPfilter (donor) and 600 nmLPfilter (acceptor), using 0.5 s integration time. Milli-BRET units (mBU) are calculated by multiplying the raw BRET values by 1000. Apparent tracer affinity values (EC50) were determined using the sigmoidal dose-response (variable slope). Competitive displacement data were then plotted and data were fit to determine the EC50 value for each example compound.

T1 sequence (P31749 whole entry E17K): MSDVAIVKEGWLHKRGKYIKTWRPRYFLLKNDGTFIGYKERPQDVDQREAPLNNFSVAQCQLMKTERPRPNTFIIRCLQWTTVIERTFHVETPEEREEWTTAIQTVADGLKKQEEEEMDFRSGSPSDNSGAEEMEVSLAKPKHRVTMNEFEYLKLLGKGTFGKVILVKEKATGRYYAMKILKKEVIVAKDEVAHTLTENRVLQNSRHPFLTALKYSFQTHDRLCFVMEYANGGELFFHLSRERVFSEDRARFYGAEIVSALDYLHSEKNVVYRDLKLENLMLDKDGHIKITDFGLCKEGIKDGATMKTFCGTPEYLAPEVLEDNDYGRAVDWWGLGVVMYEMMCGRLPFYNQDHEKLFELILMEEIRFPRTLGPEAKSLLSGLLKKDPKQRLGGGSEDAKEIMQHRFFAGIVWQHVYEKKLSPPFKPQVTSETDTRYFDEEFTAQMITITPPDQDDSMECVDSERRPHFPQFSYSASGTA

Row | IC50 | SMILES
1 | > 600 nM | C[C@@H]1CN(Cc2ccc(-n3c(-c4cccnc4N)nc4ccc(-c5ccccc5)nc43)cc2)CCN1C#N [Example 27, (R)-4-(4-(2-(2-Aminopyridin-3-yl)-5-phenyl-3H-imidazo[4,5-b]pyridin-3-yl)benzyl)-2-methylpiperazine-1-carbonitrile]
2 | 60 to 600 nM | N#CN1C[C@@H]2CN(Cc3ccc(-n4c(-c5cccnc5N)nc5ccc(-c6ccccc6)nc54)cc3)C[C@@H]2C1 [Example 43, (3aR,6aS)-5-(4-(2-(2-Aminopyridin-3-yl)-5-phenyl-3H-imidazo[4,5-b]pyridin-3-yl)benzyl)hexahydropyrrolo[3,4-c]pyrrole-2(1H)-carbonitrile]
3 | < 15 nM | N#CNC1CC2(CCN(Cc3ccc(-n4c(-c5cccnc5N)nc5ccc(-c6ccccc6)nc54)cc3)CC2)C1 [Example 13, N-(7-(4-(2-(2-Aminopyridin-3-yl)-5-phenyl-3H-imidazo[4,5-b]pyridin-3-yl)benzyl)-7-azaspiro[3.5]nonan-2-yl)cyanamide]
4 | 60 to 600 nM | N#CN1CCCN(Cc2ccc(-n3c(-c4cccnc4N)nc4ccc(-c5ccccc5)nc43)cc2)CC1 [Example 12, 4-(4-(2-(2-Aminopyridin-3-yl)-5-phenyl-3H-imidazo[4,5-b]pyridin-3-yl)benzyl)-1,4-diazepane-1-carbonitrile]
5 | 60 to 600 nM | N#CNC1CCCCN(Cc2ccc(-n3c(-c4cccnc4N)nc4ccc(-c5ccccc5)nc43)cc2)C1 (stereo not shown) [Example 31, N-(1-(4-(2-(2-Aminopyridin-3-yl)-5-phenyl-3H-imidazo[4,5-b]pyridin-3-yl)benzyl)azepan-3-yl)cyanamide]
6 | > 600 nM | N#CN1CCCC2(CCN(Cc3ccc(-n4c(-c5cccnc5N)nc5ccc(-c6ccccc6)nc54)cc3)C2)C1 (stereo not shown) [Example 21, 2-(4-(2-(2-Aminopyridin-3-yl)-5-phenyl-3H-imidazo[4,5-b]pyridin-3-yl)benzyl)-2,7-diazaspiro[4.5]decane-7-carbonitrile]
7 | 60 to 600 nM | N#CN1CC2(CCN(Cc3ccc(-n4c(-c5cccnc5N)nc5ccc(-c6ccccc6)nc54)cc3)C2)C1 [Example 18, 6-(4-(2-(2-Aminopyridin-3-yl)-5-phenyl-3H-imidazo[4,5-b]pyridin-3-yl)benzyl)-2,6-diazaspiro[3.4]octane-2-carbonitrile]
8 | < 15 nM | N#CNC1CCN(Cc2ccc(-n3c(-c4cccnc4N)nc4ccc(-c5ccccc5)nc43)cc2)CC1 [Example 3, N-(1-(4-(2-(2-Aminopyridin-3-yl)-5-phenyl-3H-imidazo[4,5-b]pyridin-3-yl)benzyl)piperidin-4-yl)cyanamide]
9 | 15 to 60 nM | N#CN1CCC2(CC1)CCN(Cc1ccc(-n3c(-c4cccnc4N)nc4ccc(-c5ccccc5)nc43)cc1)C2 [Example 20, 2-(4-(2-(2-Aminopyridin-3-yl)-5-phenyl-3H-imidazo[4,5-b]pyridin-3-yl)benzyl)-2,8-diazaspiro[4.5]decane-8-carbonitrile]
10 | 60 to 600 nM | N#CNC1CCN(Cc2ccc(-n3c(-c4cccnc4N)nc4cc(-c5ccccc5)cnc43)cc2)CC1 [Example 11, N-(1-(4-(2-(2-Aminopyridin-3-yl)-6-phenyl-3H-imidazo[4,5-b]pyridin-3-yl)benzyl)piperidin-4-yl)cyanamide]
11 | > 600 nM | N#CN1CCN(Cc2ccc(-n3c(-c4cccnc4N)nc4ccc(-c5ccccc5)nc43)cc2)CC1 [Example 2, 4-(4-(2-(2-Aminopyridin-3-yl)-5-phenyl-3H-imidazo[4,5-b]pyridin-3-yl)benzyl)piperazine-1-carbonitrile]
12 | > 600 nM | C[C@H]1CN(Cc2ccc(-n3c(-c4cccnc4N)nc4ccc(-c5ccccc5)nc43)cc2)CCN1C#N [Example 32, (S)-4-(4-(2-(2-Aminopyridin-3-yl)-5-phenyl-3H-imidazo[4,5-b]pyridin-3-yl)benzyl)-2-methylpiperazine-1-carbonitrile]
13 | 15 to 60 nM | CN(C#N)C1CCN(Cc2ccc(-n3c(-c4cccnc4N)nc4ccc(-c5ccccc5)nc43)cc2)CC1 [Example 14, N-(1-(4-(2-(2-Aminopyridin-3-yl)-5-phenyl-3H-imidazo[4,5-b]pyridin-3-yl)benzyl)piperidin-4-yl)-N-methylcyanamide]
